# What was measured:
# Assay type in all cases: in vivo
# [1] = system: haematopoietic stem cells (HSCs) and progenitor cells (CFU-GEMM); experiment: mobilisation of haematopoietic progenitor cells in mice (FIG. 1); details: assessed 1 hour later, vs vehicle
# Method: FIG. 1 is a graph showing the degree of mobilisation of haematopoietic stem cells (HSCs) and progenitor cells (CFU-GEMM) in mice following injection of vehicle, AMD3100 (5 mg/kg) and 6-{4-[1-(Propan-2-yl)piperidin-4-yl]-1,4-diazepan-1-yl}-N-(pyridin-4-yl)pyridine-2-carboxamide (30 mg/kg).
# In the experiment represented by FIG. 1, groups of 5 mice were injected with vehicle, AMD3100 (5 mg/kg) or injected sub cutaneously with 6-{4-[1-(Propan-2-yl)piperidin-4-yl]-1,4-diazepan-1-yl}-N-(pyridin-4-yl)pyridine-2-carboxamide (30 mg/kg) and the mobilisation of haematopoietic progenitor cells assessed 1 hour later. The data are expressed for the multipotential GEMM cells as colony forming units per ml of peripheral blood.
# [2] = system: human glioblastoma cell line (T98G); experiment: T98G subcutaneous xenograft growth in nude mice (FIG. 2, 3)
# Method: The solid line represents the control (i.e. untreated). The data in FIG. 2 are presented as % of the tumours progressing in groups of 8-10 mice, where progression is defined as a 20% increase in tumour volume. Tumour volume was determined by measuring the width and depth of the tumour with calipers, and then calculating the volume. […] After 15 days all of the control mice had progressed, whereas none of the mice treated with 6-{4-[1-(Propan-2-yl)piperidin-4-yl]-1,4-diazepan-1-yl}-N-(pyridin-4-yl)pyridine-2-carboxamide had done so. Inhibition of growth of human glioblastoma cell line (T98G) in nude mice is expected to be predictive of a beneficial therapeutic outcome in human cancer patients, including patients suffering from glioblastoma and astrocytoma.
# After the subcutaneous tumours had grown to at least 120 mm^3 the mice were randomised into groups and treated with temozolomide (16 mg/kg po daily for 5 days) and 6-{4-[1-(Propan-2-yl)piperidin-4-yl]-1,4-diazepan-1-yl}-N-(pyridin-4-yl)pyridine-2-carboxamide (50 mg/kg, once per day by oral gavage, for 5 days every week, dotted line).
# The data are presented in FIG. 3 as % of the tumours progressing in groups of 8-10 mice, where progression is defined as a 20% increase in tumour volume.
# [3] = system: human glioblastoma cell line (U87MG); experiment: orthotopic (intracranial) U87MG tumours in nude mice: survival and time to progression by luminescence (FIG. 4-10)
# Method: The experiments represented by FIGS. 4, 5, and 6 had the same control (i.e. vehicle only), and therefore the same control data. For improved clarity, the line representing the control data has been removed from FIGS. 5 and 6, but retained in FIG. 4.
# Nude mice were immobilized on a stereotaxic apparatus and anaesthetized. The operative field was prepared with betadine. A small hole was made at 1.0 mm anterior and 2 mm lateral to the exposed bregma. A sterile 5 μL Hamilton syringe with a 26 gauge needle was inserted at a depth of 3.0 mm from the skull surface and withdrawn by 0.5 mm to inject 3×10^3 U87MG cells in a volume of 3 μL. The injection rate was set up to 1 μL/min. After the implantation of the tumour cells, the needle was left in place for 5 min to prevent reflux. The needle was then completely withdrawn from the brain over the course of […] (1.0 mm/min), and the skin was sutured. Just before treatment initiation (5 days after injection), animals were randomized to treatment groups of 10 mice each. A small amount of cells was chosen (3×10^3) to simulate a chemo-radiotherapic treatment made after surgery in which a low number of tumour cells remain in the operatory bed, re-grow and give arise to a recurrence. Treatments were started 5 days after cell injection when no luciferase activity was detectable intracranially, and continued for 35 days. Time to progression (i.e. detection of luminescence) was assessed, and the mice followed for up to 180 days. […] The y axis parameter ‘survival’ is the percentage of mice not yet euthanized. The y axis parameter ‘probability of detection’ is the percentage of mice having a tumour that has progressed to the stage where luminescence is detected.
# The following dosage administrations were used: 6-{4-[1-(Propan-2-yl)piperidin-4-yl]-1,4-diazepan-1-yl}-N-(pyridin-4-yl)pyridine-2-carboxamide was dosed at 50 mg/kg po once daily. Bevacizumab was dosed at 4 mg/kg iv every 4 days. Temozolomide was dosed at 32 mg/kg po daily. Sunitinib was dosed at 40 mg/kg po daily. Radiotherapy consisted of 3×2Gy daily.
# For this experiment, 5×10^3 U87MG cells were injected using the technique described above. Following injection of the U87MG cells, tumours were detectable in the mice, which were treated for 28 days.
Compound,"mobilisation of HSCs from the mouse bone marrow (CFU-GEMM, colony forming units per ml of peripheral blood) ([1]; 5 mg/kg, P<0.05)","mice with tumour progression (20% increase in tumour volume) after 15 days ([2]; 50 mg/kg once per day by oral gavage, 5 days every week, all control mice had progressed)","growth of T98G subcutaneous xenografts compared to control ([2]; alone, 50 mg/kg once per day by oral gavage, 5 days every week)",anti-tumour efficacy on T98G subcutaneous xenografts (% of tumours progressing) ([2]; combination: 50 mg/kg po once per day 5 days every week + temozolomide 16 mg/kg po daily for 5 days),"mobilisation of HSCs from the mouse bone marrow (CFU-GEMM, colony forming units per ml of peripheral blood) ([1]; 30 mg/kg sub cutaneously)","delay of tumour growth (probability of detection), HR ([3]; alone, 50 mg/kg po once daily, p<0.001, FIG. 9A/9B)","delay of growth of the tumour to a size detectable through luminescence, H.R. ([3]; alone, 50 mg/kg po once daily, to vehicle, FIG. 8A/8B)","survival, HR ([3]; combination with Bevacizumab 4 mg/kg iv every 4 days, 50 mg/kg po once daily, vs vehicle, p=0.002, FIG. 4)","time taken for progression of tumours (detection by luminescence), HR ([3]; combination with Bevacizumab 4 mg/kg iv every 4 days, vs vehicle, p=0.0001, FIG. 8A)","survival, HR ([3]; combination with Sunitinib 40 mg/kg po daily, 50 mg/kg po once daily, vs vehicle, p=0.2, FIG. 7)","time taken for progression of tumours (detection by luminescence), HR ([3]; combination with Sunitinib 40 mg/kg po daily, vs vehicle, p=0.0001, FIG. 8B)","survival, HR ([3]; combination with Temozolomide 32 mg/kg po daily, 50 mg/kg po once daily, vs Temozolomide alone, p=0.02, FIG. 5)","survival, HR ([3]; combination with irradiation and temozolomide, 5x10^3 U87MG cells, tumours detectable, treated for 28 days, p=0.025, FIG. 10)","survival, HR ([3]; combination with radiotherapy 3x2Gy daily, 50 mg/kg po once daily, vs radiotherapy alone, p=0.0002, FIG. 6)","delay of tumour growth (probability of detection), HR ([3]; irradiation (3x2Gy daily) alone vs combination with irradiation, p=0.0001, FIG. 9A)","delay of tumour growth (probability of detection), HR ([3]; temozolomide (32 mg/kg po daily) alone vs combination with temozolomide, p=0.01, FIG. 9B)"
"c1cc(CN2CCCNCCNCCCNCC2)ccc1CN1CCCNCCNCCCNCC1 [AMD3100, reference compound]",significantly greater than that caused by vehicle,–,–,–,–,–,–,–,–,–,–,–,–,–,–,–
"CC(C)N1CCC(N2CCCN(c3cccc(C(=O)Nc4ccncc4)n3)CC2)CC1 [6-{4-[1-(Propan-2-yl)piperidin-4-yl]-1,4-diazepan-1-yl}-N-(pyridin-4-yl)pyridine-2-carboxamide]",–,none,inhibits the growth,synergistic,does not result in significant mobilisation,3.7,3.5,3.4,9.7,1.6,5.3,2.8,2.3,4.0,4.6,2.9
